Test results: patent US12552783B2, “Modulators of proteolysis and associated methods of use” (Arvinas Operations, Inc., priority 2018, dated 2026)

Target: KRas (Homo sapiens, UniProt P01116, G12C)
Test: KRas degradation in NCI-H2030 cells by Western blot, normalized to GAPDH (data of Table 14)
Type: cell-based
Set-up: host or cells: NCI-H2030
Conditions: for Dmax: NCI-H2030
How it was run: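 Degradation of endogenous homozygous G12C KRas is measured by immunoblot after serum starvation and compound exposure at three final concentrations (0.3, 1 and 3 μM). VHL-recruiting compounds are incubated 24 h and all others 72 h. Percent loss is calculated from GAPDH-normalized KRas relative to vehicle.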

Compound: CCC(=O)N1CCN(c2nc(NCCC(=O)N(C)CCOCCOCCOCCNc3cccc4c3C(=O)N(C3CCC(=O)NC3=O)C4=O)nc3c(F)c(-c4cc(O)cc5ccccc45)c(Cl)cc23)CC1 (stereo not shown) [compound 44]
- Percent Degradation at Indicated Concentration (μM): 0.3 (H2030 cells, 0.3 μM): C (C ≤ 35)
- Percent Degradation at Indicated Concentration (μM): 1 (H2030 cells, 1 μM): C (C ≤ 35)
- Percent Degradation at Indicated Concentration (μM): 3 (H2030 cells, 3 μM): C (C ≤ 35)
- Dmax (H2030 cells): ≤ 35%

Compound: C=CC(=O)N1CCN(c2nc(NCCC(=O)N(C)CCOCCOCCOCC(=O)N[C@H](C(=O)N3C[C@H](O)C[C@H]3C(=O)N[C@@H](C)c3ccc(-c4scnc4C)cc3)C(C)(C)C)nc3c(F)c(-c4c(O)cccc4F)c(Cl)cc23)CC1 (atropisomer, axis not shown) [compound 209, (2S,4R)-1-((S)-18-((4-(4-acryloylpiperazin-1-yl)-6-chloro-8-fluoro-7-((S)-2-fluoro-6-hydroxyphenyl)quinazolin-2-yl)amino)-2-(tert-butyl)-15-methyl-4,16-dioxo-6,9,12-trioxa-3,15-diazaoctadecanoyl)-4-hydroxy-N-((S)-1-(4-(4-methylthiazol-5-yl)phenyl)ethyl)pyrrolidine-2-carboxamide]
- Percent Degradation at Indicated Concentration (μM) (H2030, 3 μM): C (Percent Degradation: C ≤ 35)

Compound: Cc1ncsc1-c1ccc([C@H](C)NC(=O)[C@@H]2C[C@@H](O)CN2C(=O)[C@@H](NC(=O)COCCOCCN(C)C(=O)CCNc2nc(N3CCN(C(=O)C(O)O)CC3)c3cc(Cl)c(-c4c(O)cccc4F)c(F)c3n2)C(C)(C)C)cc1 (atropisomer, axis not shown) [compound 236, (2S,4R)-1-((S)-2-(tert-butyl)-15-(((S)-6-chloro-4-(4-(2,2-dihydroxyacetyl)piperazin-1-yl)-8-fluoro-7-(2-fluoro-6-hydroxyphenyl)quinazolin-2-yl)amino)-12-methyl-4,13-dioxo-6,9-dioxa-3,12-diazapentadecanoyl)-4-hydroxy-N-((S)-1-(4-(4-methylthiazol-5-yl)phenyl)ethyl)pyrrolidine-2-carboxamide]
- Percent Degradation at Indicated Concentration (μM) (H2030, 3 μM): C (Percent Degradation: C ≤ 35)

Compound: CC(=O)N1CCN(c2nc(NCCC(=O)N(C)CCOCCOCCOCCOCCOCC(=O)N[C@H](C(=O)N3C[C@H](O)C[C@H]3C(=O)N[C@@H](C)c3ccc(-c4scnc4C)cc3)C(C)(C)C)nc3c(F)c(-c4cc(O)cc5ccccc45)c(Cl)cc23)CC1 [compound 204, (2S,4R)-1-((2S)-24-((4-(4-acetylpiperazin-1-yl)-6-chloro-8-fluoro-7-(3-hydroxynaphthalen-1-yl)quinazolin-2-yl)amino)-2-(tert-butyl)-21-methyl-4,22-dioxo-6,9,12,15,18-pentaoxa-3,21-diazatetracosanoyl)-4-hydroxy-N-((S)-1-(4-(4-methylthiazol-5-yl)phenyl)ethyl)pyrrolidine-2-carboxamide]
- Percent Degradation at Indicated Concentration (μM) (H2030, 0.3 μM): C (Percent Degradation: C ≤ 35)
- Percent Degradation at Indicated Concentration (μM) (H2030, 1 μM): C (Percent Degradation: C ≤ 35)
- Percent Degradation at Indicated Concentration (μM) (H2030, 3 μM): C (Percent Degradation: C ≤ 35)
- Dmax: ≤ 35%

Compound: C=CC(=O)N1CCN(c2nc(O[C@H](C)CN3CCC(OCCOCCOCCOCCOCCOCC(=O)N[C@H](C(=O)N4C[C@H](O)C[C@H]4C(=O)N[C@@H](C)c4ccc(-c5scnc5C)cc4)C(C)(C)C)CC3)nc3c2CCN(c2cc(O)cc4ccccc24)C3)CC1 [compound 410, (2S,4R)-1-((S)-20-((1-((R)-2-((4-(4-acryloylpiperazin-1-yl)-7-(3-hydroxynaphthalen-1-yl)-5,6,7,8-tetrahydropyrido[3,4-d]pyrimidin-2-yl)oxy)propyl)piperidin-4-yl)oxy)-2-(tert-butyl)-4-oxo-6,9,12,15,18-pentaoxa-3-azaicosanoyl)-4-hydroxy-N-((S)-1-(4-(4-methylthiazol-5-yl)phenyl)ethyl)pyrrolidine-2-carboxamide]
- Percent Degradation at Indicated Concentration (μM) (H2030 cells, 0.3 μM): C (Percent Degradation: C ≤ 35)
- Percent Degradation at Indicated Concentration (μM) (H2030 cells, 1 μM): C (Percent Degradation: C ≤ 35)
- Percent Degradation at Indicated Concentration (μM) (H2030 cells, 3 μM): C (Percent Degradation: C ≤ 35)

Compound: C=CC(=O)N1CCN(c2nc(NCCCN(C)CCOCCOCCOCCOCC(=O)N[C@H](C(=O)N3C[C@H](O)C[C@H]3C(=O)N[C@@H](C)c3ccc(-c4scnc4C)cc3)C(C)(C)C)nc3c(F)c(-c4cc(O)cc5ccccc45)c(Cl)cc23)CC1 [compound 396, (2S,4R)-1-((2S)-21-((4-(4-acryloylpiperazin-1-yl)-6-chloro-8-fluoro-7-(3-hydroxynaphthalen-1-yl)quinazolin-2-yl)amino)-2-(tert-butyl)-18-methyl-4-oxo-6,9,12,15-tetraoxa-3,18-diazahenicosanoyl)-4-hydroxy-N-((S)-1-(4-(4-methylthiazol-5-yl)phenyl)ethyl)pyrrolidine-2-carboxamide]
- Percent Degradation at Indicated Concentration (μM) (H2030, 0.3 μM): C (Percent Degradation: C ≤ 35)
- Percent Degradation at Indicated Concentration (μM) (H2030, 1 μM): C (Percent Degradation: C ≤ 35)
- Percent Degradation at Indicated Concentration (μM) (H2030, 3 μM): C (Percent Degradation: C ≤ 35)
- Dmax: ≤ 35%

Compound: CCC(=O)N1CCN(c2nc(NCCC(=O)N(C)CCOCCOCCOCCOCCNc3cccc4c3C(=O)N(C3CCC(=O)NC3=O)C4=O)nc3c(F)c(-c4cc(O)cc5ccccc45)c(Cl)cc23)CC1 (stereo not shown) [compound 45, 3-((6-chloro-8-fluoro-7-(3-hydroxynaphthalen-1-yl)-4-(4-propionylpiperazin-1-yl)quinazolin-2-yl)amino)-N-(14-((2-(2,6-dioxopiperidin-3-yl)-1,3-dioxoisoindolin-4-yl)amino)-3,6,9,12-tetraoxatetradecyl)-N-methylpropanamide]
- Percent Degradation at Indicated Concentration (μM): 0.3 (H2030 cells, 0.3 μM): C (C ≤ 35)
- Percent Degradation at Indicated Concentration (μM): 1 (H2030 cells, 1 μM): C (C ≤ 35)
- Percent Degradation at Indicated Concentration (μM): 3 (H2030 cells, 3 μM): C (C ≤ 35)
- Dmax (H2030 cells): ≤ 35%

Compound: C=CC(=O)N1CCN(c2nc(Nc3ccc(OCCOCCOCCOCC(=O)N[C@H](C(=O)N4C[C@H](O)C[C@H]4C(=O)N[C@@H](C)c4ccc(-c5scnc5C)cc4)C(C)(C)C)cc3)nc3c(F)c(-c4cc(O)cc5ccccc45)c(Cl)cc23)CC1 [compound 483, (2S,4R)-1-((2S)-14-(4-((4-(4-acryloylpiperazin-1-yl)-6-chloro-8-fluoro-7-(3-hydroxynaphthalen-1-yl)quinazolin-2-yl)amino)phenoxy)-2-(tert-butyl)-4-oxo-6,9,12-trioxa-3-azatetradecanoyl)-4-hydroxy-N-((S)-1-(4-(4-methylthiazol-5-yl)phenyl)ethyl)pyrrolidine-2-carboxamide]
- Percent Degradation at Indicated Concentration (μM) (H2030, 0.3 μM): C (Percent Degradation: C ≤ 35)
- Percent Degradation at Indicated Concentration (μM) (H2030, 1 μM): C (Percent Degradation: C ≤ 35)
- Percent Degradation at Indicated Concentration (μM) (H2030, 3 μM): C (Percent Degradation: C ≤ 35)
- Dmax: ≤ 35%
